Results taken from patent US11352350B2, “IRAK degraders and uses thereof” (Kymera Therapeutics, Inc., priority 2018, dated 2022).
Like-named read-outs stand apart in the source and are kept apart here.

Columns and labels:
[1] = molecular target: IRAK4 (Homo sapiens (Human), UniProt Q9NWZ3); assay: IRAK4 MSD degradation in OCI-LY10; assay type: cell-based
In short: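 OCI-LY10 cells treated with 8-point 1:3 dilutions (top 1 to 10 μM final) for 4 to 24 h at 37° C. Lysate IRAK4 measured by MSD sandwich immunoassay (2H9 capture, Y279 detection, SULFO-TAG anti-rabbit). DC50 from three-parameter logistic fit.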

[2] = tested on: OCI-LY10; assay: CTG Cell Viability Assay - OCI-LY10; assay type: cell-based, human; conditions: OCI-LY10, 4 days, read-out: CTG Cell Viability Assay - OCI-LY10: Average external-IC50
In short: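 OCI-LY10 cells exposed to 9-dose, 1:3 dilutions from 10 μM top (0.2% DMSO) for 4 days at 37° C, 5% CO2. Viability by CellTiter-Glo luminescence; IC50 from three-parameter logistic fit.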

[3] = OCI-LY10, 4 hrs, read-out: IRAK4 MSD degradation in OCI-LY10 at 4 hrs: DC50
[4] = OCI-LY10, 24 hrs, read-out: IRAK4 MSD degradation in OCI-LY10 at 24 hrs: DC50
[5] = OCI-LY10, 4 hrs, MSD, read-out: IRAK4 MSD degradation in OCI-LY10 at 4 hrs: Average external-Abs DC50
[6] = OCI-LY10, 24 hrs, MSD, read-out: IRAK4 MSD degradation in OCI-LY10 at 24 hrs: Average external-Abs DC50

IRAK4, sequence (Q9NWZ3 whole entry): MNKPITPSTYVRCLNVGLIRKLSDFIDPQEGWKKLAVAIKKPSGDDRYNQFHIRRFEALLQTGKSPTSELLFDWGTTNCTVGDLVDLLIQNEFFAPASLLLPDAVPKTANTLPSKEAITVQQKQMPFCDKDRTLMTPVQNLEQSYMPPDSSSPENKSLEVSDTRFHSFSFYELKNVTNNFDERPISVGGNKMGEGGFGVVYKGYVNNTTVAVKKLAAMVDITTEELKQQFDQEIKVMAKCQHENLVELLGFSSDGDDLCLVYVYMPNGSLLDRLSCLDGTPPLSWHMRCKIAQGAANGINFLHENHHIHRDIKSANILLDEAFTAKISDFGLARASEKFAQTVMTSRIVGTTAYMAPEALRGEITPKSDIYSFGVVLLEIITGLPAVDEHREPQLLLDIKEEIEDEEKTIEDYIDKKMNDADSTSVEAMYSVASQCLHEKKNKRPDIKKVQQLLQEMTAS

| Structure (SMILES) | DC50 [1, 3] [nM] | DC50 [1, 4] [nM] | IC50 ([2]; Homo sapiens, OCI-Ly10, 96 h) [nM] | DC50 [1, 5] [nM] | DC50 [1, 6] [nM] | IC50 ([2]; Homo sapiens, 96 h) [nM] | IC50 [2] [nM] |
| --- | --- | --- | --- | --- | --- | --- | --- |
| CN(CC1(CNc2cccc3c2C(=O)N(C2CCC(=O)NC2=O)C3=O)CCC1)C[C@H]1CC[C@H](n2cc(NC(=O)c3cnn4ccc(N5C[C@H]6C[C@@H]5CO6)nc34)c(C(F)F)n2)CC1 (stereo partly drawn) [I-491] | 100 to 1000 | > 1000 | > 1000 | – | – | – | – |
| Cc1ccc(-n2nc(C3CCN(C(=O)CCCCOCCCc4cccc5c4n(C)c(=O)n5C4CCC(=O)NC4=O)CC3)cc2NC(=O)c2cnn3cccnc23)nc1 (stereo not drawn) [I-160] | – | – | > 1000 | > 1000 | > 1000 | – | – |
| Cc1nc2cccc(N(C)CCCOC3CCN(C[C@H]4CC[C@H](n5cc(NC(=O)c6cnn7ccc(N8CCOCC8)nc67)c(C(F)F)n5)CC4)CC3)c2c(=O)n1C1CCC(=O)NC1=O (stereo partly drawn) [I-214] | – | – | > 1000 | > 1000 | > 1000 | – | – |
| O=C1CCC(N2C(=O)c3cccc(NCCCOC[C@@H]4CN(Cc5ccc(-n6cc(NC(=O)c7coc(-c8ccnc(NCC9CC9)c8)n7)c(C(F)F)n6)cc5)CCO4)c3C2=O)C(=O)N1 (stereo partly drawn) [I-393] | – | – | 50 to 100 | 100 to 1000 | 10 to 100 | – | – |
| CN(CCCOCCCN)C[C@H]1CC[C@H](n2cc(NC(=O)c3cnn4ccc(N5CCOCC5)nc34)c(C(F)F)n2)CC1 [I-315, N-[1-[4-[[3-(3-aminopropoxy)propyl-methyl-amino]methyl]cyclohexyl]-3-(difluoromethyl)pyrazol-4-yl]-5-morpholino-pyrazolo[1,5-a] pyrimidine-3-carboxamide] | – | – | > 1000 | > 1000 | > 1000 | – | – |
| Cn1c(=O)n(C2CCC(=O)NC2=O)c2cccc(CCCOCCOCCOCCOCC(=O)N3CCN([C@H]4CC[C@H](Nc5ncnc6[nH]cc(C7CCOCC7)c56)CC4)CC3)c21 (stereo partly drawn) [I-53] | – | – | > 1000 | 100 to 1000 | 10 to 100 | – | – |
| CN[C@@H](C)C(=O)N[C@H](C(=O)N1CCC[C@H]1c1nc(C(=O)c2cccc(OCCOCCOCCOCCOCCNC[C@H]3CC[C@H](n4cc(NC(=O)c5coc(-c6ccnc(NCC7CC7)c6)n5)c(C(F)F)n4)CC3)c2)cs1)C1CCCCC1 [I-274] | – | – | 500 to 1000 | 100 to 1000 | 100 to 1000 | – | – |
| CC[C@@H]1[C@H](F)C(=O)N[C@@H]1COc1ncc(C#C[C@H]2CC[C@H](CN3CCO[C@@H](COCCCNc4cccc5c4C(=O)N(C4CCC(=O)NC4=O)C5=O)C3)CC2)c2cc(C(N)=O)c(OC)cc12 (stereo partly drawn) [I-342] | – | – | 50 to 100 | 100 to 1000 | – | – | – |
| CC[C@@H]1[C@H](F)C(=O)N[C@@H]1COc1ncc(C#C[C@H]2CC[C@H](CN3CCC(OCCCc4ccc5c(c4)n(C)c(=O)n5C4CCC(=O)NC4=O)CC3)CC2)c2cc(C(N)=O)c(OC)cc12 (stereo partly drawn) [I-187] | – | – | > 1000 | > 1000 | < 10 | – | – |
| CN(C[C@H]1CC[C@H](n2cc(NC(=O)c3cnn4ccc(N5C[C@H]6C[C@@H]5CO6)nc34)c(C(F)F)n2)CC1)[C@H]1CC[C@H](Nc2cccc3c2C(=O)N(C2CCC(=O)NC2=O)C3=O)CC1 (stereo partly drawn) [I-463] | 10 to 100 | < 10 | 100 to 500 | – | – | – | – |
| Cn1c(=O)n(C2CCC(=O)NC2=O)c2cccc(CCCOCC3CCN(C[C@H]4CC[C@H](n5cc(NC(=O)c6cnn7ccc(N8CCNCC8)nc67)c(C(F)F)n5)CC4)CC3)c21 (stereo partly drawn) [I-164] | – | – | > 1000 | < 10 | – | – | – |
| CN(C(=O)c1cnn2ccc(N3CCOCC3)nc12)c1cn([C@H]2CC[C@H](CN3CCN(Cc4ccc(COc5cccc6c5CN(C5CCC(=O)NC5=O)C6=O)cc4)CC3)CC2)nc1C(F)F (stereo partly drawn) [I-503] | > 1000 | > 1000 | < 50 | – | – | – | – |
| CN(C[C@H]1CC[C@H](n2cc(NC(=O)c3cnn4ccc(N5C[C@H]6C[C@@H]5CO6)nc34)c(C(F)F)n2)CC1)C1CCN(CCNc2cccc3c2C(=O)N(C2CCC(=O)NC2=O)C3=O)CC1 (stereo partly drawn) [I-367] | – | – | 100 to 500 | 10 to 100 | – | – | – |
| CC[C@@H]1[C@H](F)C(=O)N[C@@H]1COc1ncc(C#C[C@H]2CC[C@H](CN3CCC(OCCCc4cccc5c4n(C)c(=O)n5C4CCC(=O)NC4=O)CC3)CC2)c2cc(C(N)=O)c(OC)cc12 (stereo partly drawn) [I-186] | – | – | > 1000 | 10 to 100 | < 10 | – | – |
| O=C1CCC(N2C(=O)c3cccc(NCCCOC[C@H]4CC[C@H](n5cc(NC(=O)c6cnn7ccc(N8C[C@H]9C[C@@H]8CO9)nc67)c(C(F)F)n5)CC4)c3C2=O)C(=O)N1 (stereo partly drawn) [I-375] | – | – | 500 to 1000 | > 1000 | – | – | – |
| CN(CCOCCOCCOC12CC3CC(CC(C3)C1)C2)C[C@H]1CC[C@H](n2cc(NC(=O)c3coc(-c4ccnc(NCC5CC5)c4)n3)c(C(F)F)n2)CC1 [I-174] | – | – | > 1000 | > 1000 | > 1000 | – | – |

| Structure (SMILES) | DC50 [1, 3] [nM] | DC50 [1, 4] [nM] | IC50 ([2]; Homo sapiens, OCI-Ly10, 96 h) [nM] | DC50 [1, 5] [nM] | DC50 [1, 6] [nM] | IC50 ([2]; Homo sapiens, 96 h) [nM] | IC50 [2] [nM] |
| --- | --- | --- | --- | --- | --- | --- | --- |
| O=C1CCC(N2C(=O)c3cccc(NCCCOC4CCN(C[C@H]5CC[C@H](n6ncc(NC(=O)c7cnn8ccc(N9C[C@H]%10CC9CO%10)nc78)c6C(=O)O)CC5)CC4)c3C2=O)C(=O)N1 (stereo partly drawn) [I-348] | – | – | > 1000 | > 1000 | > 1000 | – | – |
| CC[C@@H]1[C@H](F)C(=O)N[C@@H]1COc1ncc(C#C[C@H]2CC[C@H](CN(C)CCCOCCCN)CC2)c2cc(C(N)=O)c(OC)cc12 [I-316, 4-[2-[4-[[3-(3-Aminopropoxy)propyl-methyl-amino]methyl]cyclohexyl]ethynyl]-1-[[(2S, 3S, 4S)-3-ethyl-4-fluoro-5-oxo-pyrrolidin-2-yl]methoxy]-7-methoxy-isoquinoline-6-carboxamide] | – | – | – | > 1000 | > 1000 | > 1000 | – |
| O=C1CCC(N2C(=O)c3cccc(NCCOC4CCN(C[C@H]5CC[C@H](n6cc(NC(=O)c7cnn8ccc(N9C[C@H]%10C[C@@H]9CO%10)nc78)c(C(F)F)n6)CC5)CC4)c3C2=O)C(=O)N1 (stereo partly drawn) [I-299] | – | – | 50 to 100 | 10 to 100 | – | – | – |
| CN[C@@H](C)C(=O)N[C@H](C(=O)N1Cc2cc(OCCOCCOCCNC[C@H]3CC[C@H](n4cc(NC(=O)c5coc(-c6ccnc(NCC7CC7)c6)n5)c(C(F)F)n4)CC3)ccc2C[C@H]1C(=O)N[C@@H]1CCCc2ccccc21)C(C)(C)C [I-161] | – | – | > 1000 | > 1000 | > 1000 | – | – |
| Cn1c(=O)n(C2CCC(=O)NC2=O)c2ccc(CCCOC3CCN(C[C@H]4CC[C@H](n5cc(NC(=O)c6cnn7ccc(N[C@@H]8CCCC[C@@H]8O)nc67)c(C(F)F)n5)CC4)CC3)cc21 (stereo partly drawn) [I-280] | – | – | > 1000 | 10 to 100 | – | – | – |
| CC[C@@H]1CC(=O)N[C@@H]1COc1ncc(C#C[C@H]2CC[C@@H](CN(C)CCCOCCCc3cccc4c3n(C)c(=O)n4C3CCC(=O)NC3=O)CC2)c2cc(C(N)=O)c(OC)cc12 (stereo partly drawn) [I-201] | – | – | > 1000 | > 1000 | 100 to 1000 | – | – |
| Cn1c(=O)n(C2CCC(=O)NC2=O)c2cccc(CCN3CC4(CCN(C[C@H]5CC[C@H](n6cc(NC(=O)c7cnn8ccc(N9CCOCC9)nc78)c(C(F)F)n6)CC5)CC4)C3)c21 (stereo partly drawn) [I-183] | – | – | < 50 | < 10 | < 10 | – | – |
| O=C1CCC(n2c(=O)oc3cc(CCCOC4CCN(C[C@H]5CC[C@H](n6cc(NC(=O)c7cnn8ccc(N9CCNCC9)nc78)c(C(F)F)n6)CC5)CC4)ccc32)C(=O)N1 (stereo partly drawn) [I-166] | – | – | > 1000 | 10 to 100 | – | – | – |
| CC(C)[C@@H](CS(=O)(=O)C(C)C)N1C(=O)[C@@](C)(CC(=O)N2CCC(CCN(C)C[C@H]3CC[C@H](n4cc(NC(=O)c5coc(-c6ccnc(NCC7CC7)c6)n5)c(C(F)F)n4)CC3)CC2)C[C@H](c2cccc(Cl)c2)[C@H]1c1ccc(Cl)cc1 [I-147] | – | – | > 1000 | > 1000 | > 1000 | – | – |
| COc1cc(C(=O)NCCCCCCN(C)C(=O)[C@H]2CC[C@H](n3cc(NC(=O)c4coc(-c5ccnc(NCC6CC6)c5)n4)c(C(F)F)n3)CC2)ccc1NC(=O)[C@@H]1N[C@@H](CC(C)(C)C)[C@](C#N)(c2ccc(Cl)cc2F)[C@H]1c1cccc(Cl)c1F [I-143] | – | – | – | > 1000 | > 1000 | – | > 1000 |
| Cn1c(=O)n(C2CCC(=O)NC2=O)c2cccc(CCCOC3CCN(C[C@H]4CC[C@H](n5cc(NC(=O)c6cnn7ccc(N[C@@H]8CCCC(F)(F)[C@@H]8N)nc67)c(C(F)F)n5)CC4)CC3)c21 (stereo partly drawn) [I-300] | – | – | 500 to 1000 | 100 to 1000 | – | – | – |
| CC[C@@H]1[C@H](F)C(=O)N[C@@H]1COc1ncc(C#C[C@H]2CC[C@H](CN)CC2)c2cc(C(N)=O)c(OC)cc12 [I-314, 4-[2-[4-(Aminomethyl)cyclohexyl]ethynyl]-1-[[(2S,3S,4S)-3-ethyl-4-fluoro-5-oxo-pyrrolidin-2-yl]methoxy]-7-methoxy-isoquinoline-6-carboxamide] | – | – | > 1000 | > 1000 | > 1000 | – | – |
| CN(Cc1ccc(CCNc2cccc3c2C(=O)N(C2CCC(=O)NC2=O)C3=O)cc1)C[C@H]1CC[C@H](n2cc(NC(=O)c3cnn4ccc(N5CCOCC5)nc34)c(C(F)F)n2)CC1 (stereo partly drawn) [I-325] | – | – | > 1000 | 100 to 1000 | 10 to 100 | – | – |
| CN(C[C@H]1CC[C@H](n2cc(NC(=O)c3cnn4ccc(N5CCOCC5)nc34)c(C(F)F)n2)CC1)C1CCC(Nc2cccc3c2C(=O)N(C2CCC(=O)NC2=O)C3=O)CC1 (stereo partly drawn) [I-221] | – | – | 50 to 100 | < 10 | – | – | – |
| CC(C)(O)c1nn([C@H]2CC[C@H](CN3CCC(OCCNc4cccc5c4C(=O)N(C4CCC(=O)NC4=O)C5=O)CC3)CC2)cc1NC(=O)c1cnn2ccc(N3CCOCC3)nc12 (stereo partly drawn) [I-217] | – | – | 50 to 100 | 100 to 1000 | > 1000 | – | – |
| CN(CCC(C)(C)O)c1ccn2ncc(C(=O)Nc3cn([C@H]4CC[C@H](CN(C)[C@H]5CC[C@H](Nc6cccc7c6C(=O)N(C6CCC(=O)NC6=O)C7=O)CC5)CC4)nc3C(F)F)c2n1 (stereo partly drawn) [I-504] | > 1000 | 10 to 100 | 100 to 500 | – | – | – | – |
